In US8067582B2 (Bristol-Myers Squibb Company, priority 2007, dated 2011):

target: T1, androgen receptor (AR) (Homo sapiens, UniProt P10275); assay: MDA-MB-453 Androgen Receptor Transactivation Assay (PSA-Luc reporter, 3 nM DHT); type: cell-based; conditions: MDA-MB-453 cells, antagonism in presence of 3 nM DHT, 48 hour incubation
T1 sequence (P10275 1-920): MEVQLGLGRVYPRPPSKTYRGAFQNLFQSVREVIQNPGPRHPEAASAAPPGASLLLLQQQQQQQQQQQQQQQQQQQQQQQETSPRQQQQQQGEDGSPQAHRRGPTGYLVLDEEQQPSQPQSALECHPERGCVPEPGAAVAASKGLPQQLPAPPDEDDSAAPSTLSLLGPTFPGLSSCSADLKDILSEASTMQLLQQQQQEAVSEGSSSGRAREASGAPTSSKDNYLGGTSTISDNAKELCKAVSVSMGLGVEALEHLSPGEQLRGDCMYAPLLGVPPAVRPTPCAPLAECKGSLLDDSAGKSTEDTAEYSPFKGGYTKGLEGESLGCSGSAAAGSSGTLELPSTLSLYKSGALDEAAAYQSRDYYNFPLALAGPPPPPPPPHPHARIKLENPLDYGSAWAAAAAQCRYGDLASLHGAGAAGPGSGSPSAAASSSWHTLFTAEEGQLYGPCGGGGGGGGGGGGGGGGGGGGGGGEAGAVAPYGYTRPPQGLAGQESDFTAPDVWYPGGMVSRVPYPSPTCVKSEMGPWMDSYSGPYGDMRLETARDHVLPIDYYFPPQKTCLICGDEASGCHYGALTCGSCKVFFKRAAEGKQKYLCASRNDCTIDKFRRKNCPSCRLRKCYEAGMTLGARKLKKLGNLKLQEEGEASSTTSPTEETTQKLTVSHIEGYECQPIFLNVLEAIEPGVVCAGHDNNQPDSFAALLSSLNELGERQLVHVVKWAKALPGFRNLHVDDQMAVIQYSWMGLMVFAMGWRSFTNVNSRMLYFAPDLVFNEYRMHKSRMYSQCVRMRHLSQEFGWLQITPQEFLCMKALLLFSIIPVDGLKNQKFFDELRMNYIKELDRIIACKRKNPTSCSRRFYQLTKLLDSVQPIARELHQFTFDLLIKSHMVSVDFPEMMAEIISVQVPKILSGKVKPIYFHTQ
Excerpt: Compounds can be tested in a cell based transactivation assay used to measure the antagonism of androgen receptor (AR) transcriptional activity. The transactivation assay provides a means of identifying antagonists that inhibit the effects of the native hormone dihydrotestosterone (DHT). […] The pGL3 PSA-Luc reporter plasmid is comprised of the cDNA for the firefly luciferase gene and the upstream promoter sequences containing the androgen response elements (AREs) of the prostate specific antigen (PSA). This plasmid functions as a reporter for the transcription-modulating activity of the AR. In order to detect antagonists, the transactivation assay is conducted in the presence of constant concentration of the natural AR hormone (DHT) to induce a defined reporter signal. Addition of increasing concentrations of the suspected antagonist will decrease the reporter signal (luciferase activity).
MDA-MB-453 and 22 RV1 cells were maintained in DMEM (Cellgro, Cat. #10-014-CM) or RPMI 1640 (Gibco Cat. #11875-085) respectively and supplemented with 10% FBS (Invitrogen/GIBCO Life Science). Cells were bulk transfected in flasks with 1.3 ug/ml pGL3 PSA-Luc plasmid by using the Lipofectamine 2000 Reagent (Invitrogen, Cat. #11668-019) and serum-free Opti-MEM I media (Invitrogen, Cat #31985-070) according to the manufacturer's optimized conditions. Transfection was conducted at 37° C. with 5% CO2 for 16-18 hours. Following transfection, cells are washed, treated with trypsin, counted, and seeded in a 96-well plate at 30,000 cells per well in DMEM containing 10% Charcoal/Dextran Treated Fetal Bovine Serum (Gibco Cat. #11054-020) for MDA-MB-453 cells or RPMI 1640 (Gibco Cat. #110835) containing 10% FBS (Invitrogen/GIBCO Life Science) for 22 RV1 cells.
Following transfection, cells were incubated in the absence (blank) or presence (control) of 3 nM DHT (Sigma, Cat. #A-8380) and in the presence or absence of the standard antiandrogen bicalutamide or test compounds ranging in concentrations from 10^−10 to 10^−5M. Duplicates were used for each sample. The compound dilutions were performed by the Tecan Genesis (Tecan, Triangle Park, N.C.). After a 48 hour incubation, luciferase activity was measured using the Steady-Glo Luciferase Assay System (Promega, Cat. #E2550) according to manufacturer's specifications and luminescence was measured on a Packard TopCount (PerkinElmer). For each luciferase sample reading, the percent control (in absence of compounds) was calculated as: % Control=100×[averagesample−averageblank]/[averagecontrol−averageblank] Data was plotted and the IC50 value was defined as the concentration of compound that inhibited 50% of the luciferase activity for the controls.
Compounds described herein were tested in the AR transactivation assay described immediately above, using MDA-MB-453 cells.

| SMILES | IC50 [µM] |
| --- | --- |
| Cc1c(N2C(=O)[C@H]3[C@H]4[C@@H]2OCC[C@]42C[C@@H](O)[C@@]3(C)O2)ccc(C#N)c1C(F)(F)F [Example 142, 4-((1S,3R,4S,5S,8S,12R)-3-hydroxy-4-methyl-6-oxo-9,13-dioxa-7-azatetracyclo[6.3.1.1^1,4.0^5,12]tridec-7-yl)-3-methyl-2-(trifluoromethyl)benzonitrile] | 0.95 |
| CC[C@@]12O[C@]3(CCO[C@@H]4[C@H]3[C@H]1C(=O)N4c1ccc(C#N)c(C(F)(F)F)c1)C[C@@H]2O (single isomer, unassigned) [Example 61] | ≥ 7.5 |
| C[C@@]12O[C@]3(CCO[C@@H]4[C@H]3[C@H]1C(=O)N4c1ccc(C#N)c(C(F)(F)F)c1)C[C@H]2N=[N+]=[N-] [Example 12, 4-((1S,3R,4R,5R,8R,12S)-3-azido-4-methyl-6-oxo-9,13-dioxa-7-azatetracyclo[6.3.1.1^1,4.0^5,12]tridec-7-yl)-2-(trifluoromethyl)benzonitrile] | > 7.5 |
| C[C@@]12C[C@@H](NS(=O)(=O)C3CC3)[C@]3(CCO[C@H]4[C@@H]3[C@@H]1C(=O)N4c1ccc(C#N)c(C(F)(F)F)c1)O2 [Example 196, N-((1R,2R,4R,5S,8S,12R)-7-(4-Cyano-3-(trifluoromethyl)phenyl)-4-methyl-6-oxo-9,13-dioxa-7-azatetracyclo[6.3.1.1^1,4.0^5,12]tridec-2-yl)cyclopropanesulfonamide] | 0.046 |
| N#Cc1ccc(N2C(=O)[C@@H]3[C@@H]4[C@H]2OCC[C@@]42CC[C@@H]3O2)cc1C(F)(F)F (single isomer, unassigned) [Example 53] | 1.2 |
| CCNC(=O)[C@]12C(=O)N(c3ccc(C#N)c(C(F)(F)F)c3)[C@@H]3OCC[C@@]4(C[C@H](O)[C@]1(C)O4)[C@@H]32 (single isomer, unassigned) [Example 22] | > 7.5 |
| C[C@@]12O[C@]3(CCO[C@]4(C)[C@H]3[C@H]1C(=O)N4c1ccc(C#N)c(C(F)(F)F)c1)C[C@@H]2O (single isomer, unassigned) [Example 26] | > 7.5 |
| CCS(=O)(=O)N[C@H]1C[C@@]2(C)O[C@@]13CCO[C@H]1[C@@H]3[C@@H]2C(=O)N1c1ccc(C#N)c(C(F)(F)F)c1F [Example 190, N-((1R,2S,4R,5S,8S,12R)-7-(4-Cyano-2-fluoro-3-(trifluoromethyl)phenyl)-4-methyl-6-oxo-9,13-dioxa-7-azatetracyclo[6.3.1.1^1,4.0^5,12]tridec-2-yl)ethanesulfonamide] | 2.27 |
| C[C@@]12O[C@]3(CCO[C@@H]4[C@H]3[C@H]1C(=O)N4c1ccc(C#N)c(C(F)(F)F)c1)C[C@@H]2O (single isomer, unassigned) [Example 2] | 11 |
| C[C@@]12O[C@]3(CCO[C@@H]4[C@H]3[C@H]1C(=O)N4c1ccc(C#N)c(C(F)(F)F)c1)C[C@H]2N [Example 13, 4-((1S,3R,4R,5R,8R,12S)-3-amino-4-methyl-6-oxo-9,13-dioxa-7-azatetracyclo[6.3.1.1^1,4.0^5,12]tridec-7-yl)-2-(trifluoromethyl)benzonitrile] | > 7.5 |
| CCS(=O)(=O)N[C@H]1C[C@@]23CCO[C@H]4[C@@H]2[C@H](C(=O)N4c2ccc(C#N)c(C(F)(F)F)c2)[C@]1(C)O3 [Example 222, N-((1R,3S,4S,5S,8S,12R)-7-(4-cyano-3-(trifluoromethyl)phenyl)-4-methyl-6-oxo-9,13-dioxa-7-azatetracyclo[6.3.1.1^1,4.0^5,12]tridec-3-yl)ethanesulfonamide] | 0.058 |
| C[C@]12O[C@@]3(CCO[C@@]4(C)[C@@H]3[C@@H]1C(=O)N4c1ccc(C#N)c(C(F)(F)F)c1)C[C@H]2O (single isomer, unassigned) [Example 25] | > 7.5 |
| N#Cc1ccc(N2C(=O)[C@H]3[C@H]4O[C@]5(CCO[C@@H]2[C@@H]35)C[C@@H]4O)cc1C(F)(F)F (single isomer, unassigned) [Example 57] | ≥ 7.5 |
| C[C@@]12C[C@H](O)[C@]3(CO[C@H]4[C@@H]3[C@@H]1C(=O)N4c1ccc(C#N)c(C(F)(F)F)c1)O2 [Example 38, 4-((1S,4S,7S,8R,10S,11R)-10-Hydroxy-8-methyl-6-oxo-3,12-dioxa-5-azatetracyclo[5.3.1.1^1,8.0^4,11]dodec-5-yl)-2-(trifluoromethyl)benzonitrile] | 1.09 |

same assay, conditions: MDA-MB-453 cells, antagonism in presence of 3 nM DHT, 48 hour incubation, read-out: IC50

| IC50 [µM] | SMILES |
| --- | --- |
| 1.1 | C[C@]12O[C@@]3(CCO[C@H]4[C@@H]3[C@@H]1C(=O)N4c1cc(Cl)cc(Cl)c1)C[C@H]2O [Example 149, (1S,3R,4S,5S,8S,12R)-7-(3,5-dichlorophenyl)-3-hydroxy-4-methyl-9,13-dioxa-7-azatetracyclo[6.3.1.1^1,4.0^5,12]tridecan-6-one] |
| 1.72 | C#Cc1cc(N2C(=O)[C@H]3[C@H]4[C@@H]2OCC[C@]42C[C@@H](O)[C@@]3(C)O2)ccc1Cl [Example 145, (1S,3R,4S,5S,8S,12R)-7-(4-chloro-3-ethynylphenyl)-3-hydroxy-4-methyl-9,13-dioxa-7-azatetracyclo[6.3.1.1^1,4.0^5,12]tridecan-6-one] |
| 10.5 | C[C@@]12C[C@H](O)[C@]3(CCO[C@H]4[C@@H]3[C@@H]1C(=O)N4c1ccc(F)c(Cl)c1)O2 [Example 15, (1R,2S,4R,5S,8S,12R)-7-(3-chloro-4-fluorophenyl)-2-hydroxy-4-methyl-9,13-dioxa-7-azatetracyclo[6.3.1.1^1,4.0^5,12]tridecan-6-one] |
| 2.48 | C[C@@]12C[C@H](O)[C@]3(CCO[C@H]4[C@@H]3[C@@H]1C(=O)N4c1cc(Cl)cc(Cl)c1)O2 [Example 117, (1R,2S,4R,5S,8S,12R)-7-(3,5-dichlorophenyl)-2-hydroxy-4-methyl-9,13-dioxa-7-azatetracyclo[6.3.1.1^1,4.0^5,12]tridecan-6-one] |
| 6.05 | C[C@]12O[C@@]3(CCO[C@H]4[C@@H]3[C@@H]1C(=O)N4c1ccc(Cl)c(F)c1)C[C@H]2O [Example 138, (1S,3R,4S,5S,8S,12R)-7-(4-chloro-3-fluorophenyl)-3-hydroxy-4-methyl-9,13-dioxa-7-azatetracyclo[6.3.1.1^1,4.0^5,12]tridecan-6-one] |

| SMILES | IC50 [µM] |
| --- | --- |
| C[C@]12C[C@@H](O)[C@@]3(CCO[C@@H]4[C@H]3[C@H]1C(=O)N4c1ccc(C#N)c(Br)c1)O2 [Example 240, 2-Bromo-4-((1S,2R,4S,5R,8R,12S)-2-hydroxy-4-methyl-6-oxo-9,13-dioxa-7-azatetracyclo[6.3.1.1^1,4.0^5,12]tridec-7-yl)benzonitrile] | 6.38 |
| C[C@]12O[C@@]3(CCO[C@H]4[C@@H]3[C@@H]1C(=O)N4c1ccc(C#N)c(F)c1)C[C@H]2O [Example 137, 2-Fluoro-4-((1S,3R,4S,5S,8S,12R)-3-hydroxy-4-methyl-6-oxo-9,13-dioxa-7-azatetracyclo[6.3.1.1^1,4.0^5,12]tridec-7-yl)benzonitrile] | 6.24 |
